From US12448382B2, “Heterocyclic compounds for mediating tyrosine kinase 2 activity” (GUANGZHOU INNOCARE PHARMA TECH CO., LTD., priority 2019, dated 2025)

Legend:
[1] = molecular target: T1, human recombinant TYK2 protein (Homo sapiens, UniProt P29597); assay: TYK2 Inhibition Assay (HTRF kinase assay); format: biochemical; settings: human recombinant TYK2, 11.25 μM ATP substrate solution
T1 construct: purchased Carna Biosciences 08-147
T1 sequence (P29597 871-1187 limits assumed): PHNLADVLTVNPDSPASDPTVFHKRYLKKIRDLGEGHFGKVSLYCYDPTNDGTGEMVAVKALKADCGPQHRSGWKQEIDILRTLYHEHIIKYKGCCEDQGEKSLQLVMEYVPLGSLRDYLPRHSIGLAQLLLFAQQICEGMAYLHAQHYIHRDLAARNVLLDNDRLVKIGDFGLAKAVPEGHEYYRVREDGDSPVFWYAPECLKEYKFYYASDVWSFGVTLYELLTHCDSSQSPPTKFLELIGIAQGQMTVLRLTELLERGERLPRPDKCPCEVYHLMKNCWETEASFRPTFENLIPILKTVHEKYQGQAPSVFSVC
Procedure, shortened: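 Recombinant human TYK2 was pre-incubated 15 min at room temperature with compound, then reacted for 40 min with biotinylated tyrosine-kinase substrate and ATP (substrate solution 11.25 μM ATP, 0.5 μM substrate; 5 mM MgCl2, 0.01% Brij35). Phosphorylation was read by HTRF 665/620 ratio, normalised to no-enzyme and no-compound controls, and IC50 was fitted from 8 4-fold dilutions.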

[2] = test system: IL-12-induced IFN-γ secretion in NK92 cells; assay: Inhibition of IL-12-induced IFN-γ Secretion in NK92 Cells (ELISA); format: cell-based, human; settings: Homo sapiens, 24 hours incubation, 8 concentration points, read-out: IC50 (NK92_IL12/IFNγ)
Procedure, shortened: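 NK92 cells (100,000/well, IL-2-free medium) rested overnight, then treated with compound plus IL-12 for 24 h at 37 °C. Secreted IFN-γ measured in supernatant by ELISA. Inhibition normalized to unstimulated and IL-12/0.2% DMSO controls; IC50 fitted from 8 concentrations.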

[3] = molecular target: T2, human recombinant JAK2 protein (Homo sapiens, UniProt O60674); assay: JAK2 Inhibition Assay (HTRF kinase assay); format: biochemical; settings: human recombinant JAK2, 2.5 μM ATP substrate solution
T2 construct: purchased Carna Biosciences 08-045
Procedure, shortened: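 Recombinant human JAK2 was preincubated 15 min at room temperature with compound in buffer containing 5 mM MgCl2, 1 mM DTT and 0.01% Brij35. Substrate solution (2.5 μM ATP, 0.25 μM biotinylated TK substrate) was then added for 30 min. Phosphorylation was detected by HTRF (665/620 nm ratio; no-enzyme = 100% inhibition), and IC50 was fitted from an 8-point, 4-fold series.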

T2 sequence (O60674 826-1132 limits assumed): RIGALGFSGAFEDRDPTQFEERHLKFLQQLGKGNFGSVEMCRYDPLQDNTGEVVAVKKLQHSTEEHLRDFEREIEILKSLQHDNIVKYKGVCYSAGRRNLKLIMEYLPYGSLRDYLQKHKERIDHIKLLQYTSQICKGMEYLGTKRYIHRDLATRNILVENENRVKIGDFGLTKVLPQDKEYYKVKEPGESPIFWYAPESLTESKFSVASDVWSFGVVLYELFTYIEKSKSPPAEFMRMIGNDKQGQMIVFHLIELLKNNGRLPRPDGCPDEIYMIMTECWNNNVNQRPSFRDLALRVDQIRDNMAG

Structure (SMILES)	IC50 [1]	IC50 [2]	IC50 [3]
Cc1cnc(Nc2cnn(C)c2)nc1N1C[C@]2(C)CN(C(=O)CC(F)(F)F)C[C@]2(C)C1 [Compound 60, 1-((3aR.,6aS)-3a,6a-dimethyl-5-(5-methyl-2-((1-methyl-1H-pyrazol-4-yl)amino)pyrimidin-4-yl)hexahydropyrrolo[3,4-c]pyrrol-2(1H)-yl)-3,3,3-trifluoropropan-1-one]	2.2 nM	1380 nM	5.9 nM
Cn1cc(Nc2ncc(Cl)c(N3C[C@]4(C)CN(c5ccno5)C[C@]4(C)C3)n2)cn1 [Compound 66]	0.2 nM	66 nM	0.3 nM
Cc1cc(CN2C[C@@]3(C)CN(c4nc(Nc5cnn(C)c5)ncc4Cl)C[C@@]3(C)C2)on1 [Compound 78, 5-chloro-4-((3aR,6aS)-3a,6a-dimethyl-5-((3-methylisoxazol-5-yl)methyl)hexahydropyrrolo[3,4-c]pyrrol-2(1H)-yl)-N-(1-methyl-1H-pyrazol-4-yl)pyrimidin-2-amine]	4.2 nM	2760 nM	7.6 nM
Cn1cc(Nc2ncc(Cl)c(N3C[C@]4(C)CN(Cc5cn[nH]c5)C[C@]4(C)C3)n2)cn1 [Compound 79, 4-((3aR,6aS)-5-((1H-pyrazol-4-yl)methyl)-3a,6a-dimethylhexahydropyrrolo[3,4-c]pyrrol-2(1H)-yl)-5-chloro-N-(1-methyl-1H-pyrazol-4-yl)pyrimidin-2-amine]	51 nM	3970 nM	40 nM
Cc1ncc(CN2C[C@@]3(C)CN(c4nc(Nc5cnn(C)c5)ncc4Cl)C[C@@]3(C)C2)o1 [Compound 80, 5-chloro-4-((3aR,6aS)-3a,6a-dimethyl-5-((2-methyloxazol-5-yl)methyl)hexahydropyrrolo[3,4-c]pyrrol-2(1H)-yl)-N-(1-methyl-1H-pyrazol-4-yl)pyrimidin-2-amine]	19 nM	4090 nM	16 nM
Cn1cc(Nc2ncc(Cl)c(N3C[C@]4(C)CN(Cc5cc[nH]n5)C[C@]4(C)C3)n2)cn1 [Compound 81, 4-((3aR,6aS)-5-((1H-pyrazol-3-yl)methyl)-3a,6a-dimethylhexahydropyrrolo[3,4-c]pyrrol-2(1H)-yl)-5-chloro-N-(1-methyl-1H-pyrazol-4-yl)pyrimidin-2-amine]	50 nM	3970 nM	16 nM
Cc1noc(CN2C[C@@]3(C)CN(c4nc(Nc5cnn(C)c5)ncc4Cl)C[C@@]3(C)C2)n1 [Compound 82, 5-chloro-4-((3aR,6aS)-3a,6a-dimethyl-5-((3-methyl-1,2,4-oxadiazol-5-yl)methyl)hexahydropyrrolo[3,4-c]pyrrol-2(1H)-yl)-N-(1-methyl-1H-pyrazol-4-yl)pyrimidin-2-amine]	16 nM	2870 nM	14 nM
Cc1nnc(N2C[C@@]3(C)CN(c4nc(Nc5cnn(C)c5)ncc4Cl)C[C@@]3(C)C2)o1 [Compound 83, 5-chloro-4-((3aR,6aS)-3a,6a-dimethyl-5-(5-methyl-1,3,4-oxadiazol-2-yl)hexahydropyrrolo[3,4-c]pyrrol-2(1H)-yl)-N-(1-methyl-1H-pyrazol-4-yl)pyrimidin-2-amine]	7.4 nM	4550 nM	13 nM
Cn1cc(Nc2ncc(Cl)c(N3C[C@]4(C)CN(CC5CC5)C[C@]4(C)C3)n2)cn1 [Compound 84, 5-chloro-4-((3aR,6aS)-5-(cyyclopropylmethyl)-3a,6a-dimethylhexahydropyrrolo[3,4-c]pyrrol-2(1H)-yl)-N-(1-methyl-1H-pyrazol-4-yl)pyrimidin-2-amine]	186 nM	8750 nM	477 nM
Cn1cc(Nc2ncc(Cl)c(N3C[C@]4(C)CN(CC#N)C[C@]4(C)C3)n2)cn1 [Compound 85, 2-((3aR,6aS)-5-(5-chloro-2-((1-methyl-1H-pyrazol-4-yl)amino)pyrimidin-4-yl)-3a,6a-dimethylhexahydropyrrolo[3,4-c]pyrrol-2(1H)-yl)acetonitrile]	2.4 nM	5350 nM	1.7 nM
